According to patent US20130096067A1, “DROSOPHILA TUMOR STEM CELL MODEL AND USES THEREOF” (priority 2011, published 2013):
Where two headings read alike, the source gives them in different places.

Test system: Raf-1^gof intestinal tumors
Conditions: for Log2 (fold) (luciferase activity, log2 of the fold difference relative to DMSO controls) / Fold (luciferase activity, fold difference relative to DMSO controls): screen of 480 ICCB compounds in vials, compounds fed to flies with one-day old Raf-1^gof tumors, esg-Gal4 luciferase
[1] = assessed three days later, averaged from multiple wells
[2] = ICCB compounds fed in vials to flies with one-day old Raf-1^gof tumors, assessed three days later
[3] = ICCB compounds fed in vials to flies with one-day old Raf-1^gof tumors, assessed three days later, averaged from multiple wells
Further: test concentration or dose not given here.

SMILES | Log2 (fold) (luciferase activity, log2 of the fold difference relative to DMSO controls) (assessed three days later) | Fold (luciferase activity, fold difference relative to DMSO controls) [1] | Log2 (fold) of luciferase activity relative to DMSO controls [2] | Fold (luciferase activity relative to DMSO controls) [3] | further results
OC[C@H]1O[C@@H](n2cnc3cc(Cl)c(Cl)cc32)[C@H](O)[C@@H]1O [DRB] | −0.246 | 0.843 |  |  | 
CCCCCCCCCCC1=C(C)C(=O)C(OC)=C(OC)C1=O [Decylubiquinone] | −0.442 | 0.736 |  |  | 
C#CCN(C)C(C)Cc1ccccc1 (stereo not drawn) [Deprenyl] | −0.642 | 0.641 |  |  | 
Cc1cccc(CCN2CCC(C(=O)c3ccc(NS(C)(=O)=O)cc3)CC2)n1 [E-4031] |  |  | −0.195 | 0.874 fold | 
CCCCCC[C@@H]([C@@H](C)O)n1cnc2c(N)ncnc21.Cl [EHNA HCl] | −0.312 | 0.805 |  |  | 
CCCCCCCCCCCC=CCC=CCCCC(=O)O [EICOSA-5,8-DIENOIC ACID (20:2 n-12)] |  |  | −0.149 | 0.902 fold | 
CCCCC/C=C\C/C=C\CCCCCCCCCC(=O)O [EICOSADIENOIC ACID (20:2 n-6)] |  |  | −0.093 | 0.938 fold | 
CC/C=C\C/C=C\C/C=C\C/C=C\C/C=C\CCCC(=O)O [EICOSAPENTAENOIC ACID (20:5 n-3)] |  |  | 0.024 | 1.017 fold | 
CC/C=C\C/C=C\C/C=C\CCCCCCCCCC(=O)O [EICOSATRIENOIC ACID (20:3 n-3)] |  |  | 0.198 | 1.147 fold | 
CCCCCCCCCCCCCCCCOCC(COP(=O)([O-])OCC[N+](C)(C)C)OC(C)=O (stereo not drawn) [ENANTIO-PAF C16] |  |  | −0.051 | 0.965 fold | 
C[C@]12CC[C@@H]3c4ccc(O)cc4CC[C@H]3[C@@H]1CC[C@@H]2O [ESTRADIOL] |  |  | −0.160 | 0.895 fold | 
O=c1c2ccccc2[se]n1-c1ccccc1 [Ebselen] |  |  | −0.168 | 0.890 fold | 
CC(C)=CCC/C(C)=C/CC/C(C)=C/CSCC(=O)O [FARNESYLTHIOACETIC ACID] | −0.295 | 0.815 |  |  | 
N#CC(C#N)=NNc1ccc(OC(F)(F)F)cc1 [FCCP] | −0.313 | 0.805 |  |  | 
C=CC[C@@H]1/C=C(\C)C[C@H](C)C[C@H](OC)[C@H]2O[C@@](O)(C(=O)C(=O)N3CCCC[C@H]3C(=O)O[C@H](/C(C)=C/[C@@H]3CC[C@@H](O)[C@H](OC)C3)[C@H](C)[C@@H](O)CC1=O)[C@H](C)C[C@@H]2OC [FK-506] | −0.699 | 0.616 |  |  | 
O=C(NCC1CCCCN1)c1cc(OCC(F)(F)F)ccc1OCC(F)(F)F (stereo not drawn) [FLECAINIDE] | −0.253 | 0.839 |  |  | 
O=C(O)c1ccccc1Nc1cccc(C(F)(F)F)c1 [FLUFENAMIC ACID] | −0.214 | 0.862 |  |  | 
Fc1ccc(C(c2ccc(F)cc2)N2CCN(C/C=C/c3ccccc3)CC2)cc1 [FLUNARIZINE] | −0.836 | 0.560 |  |  | 
O=C1NCN(c2ccccc2)C12CCN(CCCC(c1ccc(F)cc1)c1ccc(F)cc1)CC2 [FLUSPIRILINE] |  |  | −0.192 | 0.875 fold | 
COC(=O)c1c(C)[nH]c(C)c1C(=O)c1ccccc1Cc1ccccc1 [FPL-64176] |  |  | −0.166 | 0.891 fold | 
CCCC[C@@H](C)[C@@H](OC(=O)C[C@@H](CC(=O)O)C(=O)O)[C@H](C[C@@H](C)C[C@H](O)CCCC[C@@H](O)C[C@H](O)[C@H](C)N)OC(=O)C[C@@H](CC(=O)O)C(=O)O [Fumonisin B1] | −0.685 | 0.622 |  |  | 

SMILES | Log2 (fold) (luciferase activity, log2 of the fold difference relative to DMSO controls) (assessed three days later) | Fold (luciferase activity, fold difference relative to DMSO controls) [1] | Log2 (fold) of luciferase activity relative to DMSO controls [2] | Fold (luciferase activity relative to DMSO controls) [3] | further results
N#Cc1c(-c2ccccc2)no[n+]1[O-] [Furoxan] | −0.280 | 0.823 |  |  | 
CCCCC/C=C\C/C=C\C/C=C\CCCCC(=O)O [GAMMA-LINOLENIC ACID (18:3 n-6)] |  |  | −0.145 | 0.904 fold | 
CN(C)CCCn1cc(C2=C(c3c[nH]c4ccccc34)C(=O)NC2=O)c2ccccc21 [GF-109203X] | −0.238 | 0.848 |  |  | 
CCCCC[C@H](O)CC(=O)CCc1ccc(O)c(OC)c1 [GINGEROL] | −0.273 | 0.827 |  |  | 
Cc1cnc(C(=O)NCCc2ccc(S(=O)(=O)NC(=O)NC3CCCCC3)cc2)cn1 [GLIPIZIDE] | −0.417 | 0.749 |  |  | 
COc1ccc(Cl)cc1C(=O)NCCc1ccc(S(=O)(=O)NC(=O)NC2CCCCC2)cc1 [GLYBURIDE] | −0.217 | 0.861 |  |  | 
CNC(=O)[C@H](Cc1c[nH]c2ccccc12)NC(=O)[C@@H](CC(=O)NO)CC(C)C [GM6001] |  |  | 0.173 | 1.128 fold | 
CC1(O)CC23CC(O)C4(O)C(CC(O)C4(C)C)C(C)(O)C2CCC1C3O (stereo not drawn) [GR[…]] | −0.553 | 0.682 |  |  | 
O=C1Nc2ccc(I)cc2/C1=C/c1cc(Br)c(O)c(Br)c1 [GW-5074] | −0.369 | 0.774 |  |  | 
O=C(Nc1ccccc1)c1cc([N+](=O)[O-])ccc1Cl [GW-9662] | −0.581 | 0.669 |  |  | 
CN1C(=O)[C@]23CC4=CC=C[C@H](O)[C@H]4N2C(=O)[C@@]1(CO)SS3 [Gliotoxin] | −0.478 | 0.718 |  |  | 
Cn1c2ccccc2c2c3c(c4c5ccccc5n(CCC#N)c4c21)CNC3=O [Go6976] | −0.287 | 0.819 |  |  | 
O=S(=O)(c1cccc2cnccc12)N1CCCNCC1 [HA1077] | −0.326 | 0.798 |  |  | 
NC(N)=NCCNS(=O)(=O)c1cccc2cnccc12 [HA-1004] | −0.372 | 0.773 |  |  | 
COCc1cc(O)c(O)c(O)c1-c1c(COC)cc(O)c(O)c1O [HBDDE] | −0.233 | 0.851 |  |  | 
NCCc1c[nH]cn1 [HISTAMINE] |  |  | −0.158 | 0.896 fold | 
CC(=O)OCOC(c1ccc2ccccc2c1)P(=O)(OCOC(C)=O)OCOC(C)=O (stereo not drawn) [HNMPA-(AM)3] |  |  | −0.049 | 0.966 fold | 
C=C1C(=O)O[C@@H]2C[C@@H](C)[C@@H]3C=CC(=O)[C@@]3(C)[C@@H](O)[C@H]12 [Helenalin] |  |  |  |  | Fold (luciferase activity relative to DMSO controls) (in vivo): 1.112 fold; Log2 (fold) of luciferase activity relative to DMSO controls (in vivo): 0.154
CC(C)c1cccc(=O)c(O)c1 [Hinokitiol] | −0.240 | 0.847 |  |  | 
C/C=C1\[C@H]2C=C(C)C[C@]1(N)c1ccc(=O)[nH]c1C2 [Huperzine A [(−)-Huperzine A]] | −0.641 | 0.641 |  |  | 
CC1(C2CCCC2)Cc2cc(OCC(=O)O)c(Cl)c(Cl)c2C1=O (stereo not drawn) [IAA-94] |  |  | 0.061 | 1.043 fold | 
